According to patent US20130274235A1, “TREATMENT OF MOTOR NEURON DISEASE” (THE GENERAL HOSPITAL CORPORATION, priority 2010, published 2013):
“And” between values parts separate entries of the source, which are not always exact repeats. Equal entries are not always repeated. Structures can show the parent of a compound that is named as a salt. Where a SMILES comes first, the peptide text is derived from it.

How the values were obtained:
IGF-II mRNA = assay: IGF-II expression assay, qPCR detection, in primary spinal cord cultures; format: cell-based, mice; conditions: for IGF-II inducing activity (in words) / induction of IGF-II expression (fold induction): NSAID series, FIGS. 3 and 4; for induction of IGF-II expression (in words): antihypertensive agents, FIGS. 5 and 6
Protocol: Quantitative PCR utilizing SYBR green I (Molecular Probes, Eugene, Oreg.) or specific Taqman probes was used to confirm differential gene expression. RNA extracted from 100-200 LCMed motor neurons were reverse transcribed using Superscript III (Invitrogen). 2 μl of diluted cDNA was amplified (DNA Engine Opticon real-time PCR machine, Bio-Rad), in […] reactions containing 900 nM primer and 250 nM probe in Taqman Universal Master Mix (Applied Biosystems). Reactions were run in duplicate and each gene analyzed in at least three different animals. Reaction parameters were as follows: 50° C. for 2 min, 95° C. for 10 min, and 40 cycles of 95° C. for 15 s and 60° C. for 1 min. Controls lacking template and/or Superscript were included. The absolute copy number for each gene was quantified using a standard curve from human GAPDH plasmid and amplified products were normalized against rat GAPDH expression. Primers and probes (Integrated DNA technologies) were as follows: rat GAPDH: Forward primer: […]
Two libraries of FDA-approved drugs (NINDS and Harvard LDDN) were screened for their ability to up-regulate IGF-II expression. Candidate compounds were screened in an IGF-II expression assay using a qPCR detection methodology in primary spinal cord cultures or using a luciferase reporter assay. In the initial screening, therapeutic candidates were identified as those that increased IGF-II expression by at least 2-fold. […]

IGF-II protein = IGF-II protein expression in primary spinal cord cultures, quantitated by ELISA; format: cell-based, mice
From the text: Further results of the library screening identified the following therapeutic agents as having a significant inducing effect on IGF-II expression in primary spinal cord cultures and are useful for treating motor neuron disease. Protein expression was quantitated by ELISA.

Molecule | Fold Increase in IGF-II mRNA Expression (IGF-II mRNA) | other results
Clc1ccc2c(c1)C(N1CCNCC1)=Nc1ccccc1O2 [Amoxapine] | 4.1 ± 2.3 fold | –
COC(=O)[C@H](Cc1ccccc1)NC(=O)[C@@H](N)CC(=O)O [Aspartame] (H-Asp-Phe-OMe) | 5.5 ± 0.7 fold | Fold Increase in IGF-II Protein Expression (IGF-II protein): 1.2 fold; IGF-II Protein Expression (pg/ml in media) (IGF-II protein): (175 ± 1.7) pg/ml
CNCC[C@@H](Oc1ccccc1C)c1ccccc1 [Atomoxetine HCl] | 4.8 fold | –
CN1CCCC(n2nc(Cc3ccc(Cl)cc3)c3ccccc3c2=O)CC1 (centres unmarked) [Azelastine HCl] | 3.2 fold | –
CC(C(=O)O)c1ccc2c(c1)[nH]c1ccc(Cl)cc12 (centres unmarked) [Carboprofen] | 2.4 fold | IGF-II inducing activity (in words) (IGF-II mRNA): strong IGF-II inducing activity
Nc1nc(/C(=C/CC(=O)O)C(=O)N[C@@H]2C(=O)N3C(C(=O)O)=CCS[C@H]23)cs1 [Ceftibuten] | 3.9 ± 2.7 fold | –
O=C(O)COCCN1CCN(C(c2ccccc2)c2ccc(Cl)cc2)CC1 (centres unmarked) [Cetirizine HCl] | 5.8 fold | –
CN(C)CCCN1c2ccccc2Sc2ccc(Cl)cc21 [Chlorpromazine] | 3.4 fold | –
CN(C)CCCC1(c2ccc(F)cc2)OCc2cc(C#N)ccc21 (centres unmarked) [Citalopram] | 3.4 fold | –
CC(=O)OCC(=O)[C@@]1(O)[C@H](C)C[C@H]2[C@@H]3CCC4=CC(=O)C=C[C@]4(C)[C@@]3(F)[C@@H](O)C[C@@]21C [Dexamethasone acetate] | 3.8 fold | –
O=C(O)Cc1ccccc1Nc1c(Cl)cccc1Cl [Diclofenac] | 4.0 ± 1.1 fold | induction of IGF-II expression (fold induction) (IGF-II mRNA): 3.4±1.3 fold; Fold Increase in IGF-II Protein Expression (IGF-II protein): 1.1 fold; IGF-II Protein Expression (pg/ml in media) (IGF-II protein): (112 ± 29) pg/ml
Cc1onc(-c2c(Cl)cccc2Cl)c1C(=O)N[C@@H]1C(=O)N2[C@@H]1SC(C)(C)[C@@H]2C(=O)O [Dicloxacillin sodium] | 3.2 fold | –
COc1ccc([C@@H]2Sc3ccccc3N(CCN(C)C)C(=O)[C@@H]2OC(C)=O)cc1 [Diltiazem HCl] | 4.3 fold | induction of IGF-II expression (in words) (IGF-II mRNA): most active
CN1CCC[C@@H]1Cc1c[nH]c2ccc(CCS(=O)(=O)c3ccccc3)cc12 [Eletriptan HBr] | 4.3 fold | –
CNCCC(Oc1ccc(C(F)(F)F)cc1)c1ccccc1 (centres unmarked) [Fluoxetine] | 4.3 ± 2.3 fold | –
CC(C(=O)O)c1ccc(-c2ccccc2)c(F)c1 (centres unmarked) [Flurbiprofen] | 2.5 fold and 2.5 ± 0.5 fold | induction of IGF-II expression (fold induction) (IGF-II mRNA): 2.5±0.5 fold; Fold Increase in IGF-II Protein Expression (IGF-II protein): 1.2 fold; IGF-II Protein Expression (pg/ml in media) (IGF-II protein): (121 ± 27) pg/ml
COCCCC/C(=N\OCCN)c1ccc(C(F)(F)F)cc1 [Fluvoxamine maleate] | 4.8 fold | –
COc1ccc(Cl)cc1C(=O)NCCc1ccc(S(=O)(=O)NC(=O)NC2CCCCC2)cc1 [Glyburide] | 4.9 fold | –
COc1ccccc1OCC(O)CO (centres unmarked) [Guaifenesin] | 2.9 fold | –
NNc1nncc2ccccc12 [Hydralazine HCl] | 6.3 fold | induction of IGF-II expression (in words) (IGF-II mRNA): most active
C[N+](C)(C)C[C@H](O)CC(=O)[O-] [Levocarnitine] | 5.7 ± 1.1 fold | Fold Increase in IGF-II Protein Expression (IGF-II protein): 1.7 fold; IGF-II Protein Expression (pg/ml in media) (IGF-II protein): (258 ± 7) pg/ml
N[C@@H](Cc1ccc(O)c(O)c1)C(=O)O [Levodopa] | 3.5 fold | –
Cc1cnc(NC(=O)C2=C(O)c3ccccc3S(=O)(=O)N2C)s1 [Meloxicam sodium] | 4.1 fold | –
CCOC(=O)[C@@](C)(N)Cc1ccc(O)c(O)c1 [Methyldopate HCl] | 4.3 fold | induction of IGF-II expression (in words) (IGF-II mRNA): most active
NC(=O)C[S+]([O-])C(c1ccccc1)c1ccccc1 (centres unmarked) [Modafinil] | 4.4 ± 4.0 fold | Fold Increase in IGF-II Protein Expression (IGF-II protein): 1.4 fold; IGF-II Protein Expression (pg/ml in media) (IGF-II protein): (213 ± 22) pg/ml

Molecule | Fold Increase in IGF-II mRNA Expression (IGF-II mRNA) | other results
NC(=O)c1cccnc1 [Niacinamide] | 5.0 ± 3.6 fold | Fold Increase in IGF-II Protein Expression (IGF-II protein): 1.1 fold; IGF-II Protein Expression (pg/ml in media) (IGF-II protein): (151 ± 45) pg/ml
CN1CCCC1c1cccnc1.O=C(O)C(O)C(O)C(=O)O.O=C(O)C(O)C(O)C(=O)O (centres unmarked) [Nicotine ditartrate] | 4.8 ± 0.3 fold | Fold Increase in IGF-II Protein Expression (IGF-II protein): 1.5 fold; IGF-II Protein Expression (pg/ml in media) (IGF-II protein): (205 ± 26) pg/ml
COC(=O)C1=C(C)NC(C)=C(C(=O)OC)C1c1ccccc1[N+](=O)[O-] [Nifedipine] | 6.6 ± 6.2 fold | –
Cc1cc2c(s1)Nc1ccccc1N=C2N1CCN(C)CC1 [Olanzapine] | 4.0 fold | –
CCCc1nc(C(C)(C)O)c(C(=O)OCc2oc(=O)oc2C)n1Cc1ccc(-c2ccccc2-c2nnn[nH]2)cc1 [Olmesartan medoxomil] | 5.2 fold | induction of IGF-II expression (in words) (IGF-II mRNA): most active
COc1ccc2[nH]c([S+]([O-])Cc3ncc(C)c(OC)c3C)nc2c1 (centres unmarked) [Omeprazole] | 5.9 fold | –
CCC(=O)NCC[C@@H]1CCc2ccc3c(c21)CCO3 [Ramelteon] | 3.4 ± 1.3 fold | Fold Increase in IGF-II Protein Expression (IGF-II protein): 1.5 fold; IGF-II Protein Expression (pg/ml in media) (IGF-II protein): (201 ± 10) pg/ml
Cc1cc2nc3c(=O)[nH]c(=O)nc-3n(C[C@H](O)[C@H](O)[C@H](O)CO)c2cc1C [Riboflavin] | 4.1 ± 1.9 fold | Fold Increase in IGF-II Protein Expression (IGF-II protein): 1.5 fold; IGF-II Protein Expression (pg/ml in media) (IGF-II protein): (205 ± 42) pg/ml
CCCN(CCC)CCc1cccc2c1CC(=O)N2 [Ropinirole] | 4.5 ± 3.0 fold | –
Nc1c2c(nc3ccccc13)CCCC2 [Tacrine HCl] | 3.7 fold | –
CS(=O)(=O)c1ccc([C@@H](O)[C@@H](CO)NC(=O)C(Cl)Cl)cc1 [Thiamphenicol] | 3.5 fold | –
Cc1ccc(-c2nc3ccc(C)cn3c2CC(=O)N(C)C)cc1 [Zolpidem] | 6.1 fold | –
COCCCOc1cc(C[C@@H](C[C@H](N)[C@@H](O)C[C@H](C(=O)NCC(C)(C)C(N)=O)C(C)C)C(C)C)ccc1OC [aliskiren hemifumarate] | – | induction of IGF-II expression (in words) (IGF-II mRNA): most active
CC(C)NCC(O)COc1ccc(CC(N)=O)cc1 (centres unmarked) [atenolol] | – | induction of IGF-II expression (in words) (IGF-II mRNA): most active
CCCCNc1cc(C(=O)O)cc(S(N)(=O)=O)c1Oc1ccccc1 [bumetanide] | – | induction of IGF-II expression (in words) (IGF-II mRNA): most active
COc1ccccc1OCCNCC(O)COc1cccc2[nH]c3ccccc3c12 (centres unmarked) [carvedilol] | – | induction of IGF-II expression (in words) (IGF-II mRNA): most active
Clc1cccc(Cl)c1N=C1NCCN1 [clonidine HCl] | – | induction of IGF-II expression (in words) (IGF-II mRNA): most active
COc1ccc(-c2cc(C(F)F)nn2-c2ccc(S(N)(=O)=O)cc2)cc1F [deracoxib] | – | IGF-II inducing activity (in words) (IGF-II mRNA): strong IGF-II inducing activity
O=C(O)c1cc(-c2ccc(F)cc2F)ccc1O [diflunisal] | – | IGF-II inducing activity (in words) (IGF-II mRNA): strong IGF-II inducing activity
COc1cc2c(cc1OC)C(=O)C(CC1CCN(Cc3ccccc3)CC1)C2 (centres unmarked) [donepezil HCl] | – | induction of IGF-II expression (in words) (IGF-II mRNA): most active
CC(COc1ccccc1)N(CCCl)Cc1ccccc1 (centres unmarked) [phenoxybenzamine HCl] | – | induction of IGF-II expression (in words) (IGF-II mRNA): most active
CC(C)(C)NC[C@H](O)COc1nsnc1N1CCOCC1 [timolol maleate] | – | induction of IGF-II expression (in words) (IGF-II mRNA): most active
Cc1onc(-c2ccccc2)c1-c1ccc(S(N)(=O)=O)cc1 [valdecoxib] | – | IGF-II inducing activity (in words) (IGF-II mRNA): strong IGF-II inducing activity
terbutaline hemisulfate | – | induction of IGF-II expression (in words) (IGF-II mRNA): most active
